Values joined by “and” are separate entries in the source; they are usually repeats but may differ in a detail not shown here. Equal entries are not always repeated. Values belong to the compound of their own block, whether it stands above or below them.
What was measured:
WT Siglec-6-Fc = molecular target: T1, WT Siglec-6-Fc (Homo sapiens, UniProt O43699); experiment: Bead assay (Siglec-Fc on streptavidin microbeads, flow cytometry); type: binding
T1 construct: the Siglecs as Fc chimeras; made in house; host or cells: WT CHO cells
T1 sequence (O43699 27-347 limits assumed): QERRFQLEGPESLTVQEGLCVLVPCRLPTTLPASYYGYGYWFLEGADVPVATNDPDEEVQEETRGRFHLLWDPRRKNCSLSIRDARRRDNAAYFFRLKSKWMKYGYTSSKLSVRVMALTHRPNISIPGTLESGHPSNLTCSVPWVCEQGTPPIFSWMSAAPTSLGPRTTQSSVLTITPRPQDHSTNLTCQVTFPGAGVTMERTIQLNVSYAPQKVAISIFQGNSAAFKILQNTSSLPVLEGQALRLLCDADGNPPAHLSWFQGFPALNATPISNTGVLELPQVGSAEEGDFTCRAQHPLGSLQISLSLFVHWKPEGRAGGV
Experimental: (§1) Siglec-Fc constructs designed by Rodrigues et al.[30] were used in this work. Siglec-Fc constructs were expressed using WT CHO cells in cell culture media as described above with 1% HEPES. Cells incubated as described above for one-week post confluency. The supernatant was harvested and stored at 4 °C.
(§2) The purification was heavily inspired by Rodrigues et al.[30]. The purification of the Siglec-Fcs from supernatant began with Ni^2+ affinity chromatography using an AKTA FPLC equipped with a HisTrap Excel column (GE). The column was equilibrated with fifteen column volumes (CVs) of equilibrium buffer (500 mM NaCl, 20 mM NaPO4H2, pH 7.4). The Siglec-Fc containing supernatant was then loaded in its entirety onto the column. The column was then washed with fifteen CVs of wash buffer (500 mM NaCl, 30 mM imidazole, 20 mM NaPO4H2, pH 7.4). The Siglec-Fc was then eluted in 20 in 1 mL fractions with twenty CVs of elution buffer (500 mM NaCl, 500 mM imidazole, 20 mM NaPO4H2, pH 7.4). Fractions containing Siglec-Fc were compiled and then prepared for the next stage of purification by diluting the fractions 1:4 with buffer W (100 mM Tris–HCl, 150 mM NaCl, 1 mM EDTA, pH 8.0). A Strep-Tactin column (IBA life sciences) was washed with fifteen CVs of buffer W. The Siglec-Fc-buffer W solution was then loaded in its entirety onto the column. The bound Siglec-Fc was then washed with fifteen CVs of buffer W. Siglec-Fc was eluted from the column with 15 column volumes of buffer E (100 mM Tris–HCl, 150 mM NaCl, 1 mM EDTA, 10 mM d-Desthiobiotin, pH 8.0). Fractions containing Siglec-Fc were pooled and dialyzed against PBS to remove any d-Desthiobiotin. After dialysis, Siglec-Fcs were concentrated using an ultra-centrifugal device (30 kDa MWCO) and aliquoted into 5 µg aliquots, and frozen. The Siglec-Fcs were then lyophilized overnight, and the lyophilized Siglec-Fcs were stored at −20 °C.
(§3) Pierce^TM Streptavidin Magnetic Beads (Thermo Scientific) were blocked with 2% (m/V) BSA on ice for 1 h. Siglec-Fc in PBS was added then added to the bead solution such that the final concentration was 25 µg/mL. The Siglec-Fc was complexed to the beads for 1 h on ice. Excess Siglec-Fc was removed by washing the beads with 2% BSA solution and 50 µM liposome or 50 µg/mL (protein concentration) EV solution was then added to the beads. The beads were incubated with the liposomes/EVs for 30 min at 37 °C. The beads were then washed with 2% BSA solution and flow cytometry was used to measure the binding between the beads and the liposomes.

R92K Siglec-6-Fc = molecular target: T2, R92K Siglec-6-Fc (Homo sapiens, UniProt O43699, R92K); experiment: as above; type: binding
T2 construct: the Siglecs as Fc chimeras; made in house; host or cells: WT CHO cells
T2 sequence (O43699 27-347 R92K limits assumed): as the sequence (O43699 27-347 limits assumed) above, with R66K counted along it
Experimental: as §1, §2, §3

[1] = system: syncytiotrophoblasts of placental explants; experiment: Liposome uptake assay in the placenta explants (confocal microscopy); type: cell-based, human; settings: for liposome binding/uptake, fluorescence signal (replicates): cells not given
[2] = molecular target: T3, Daudi cells transduced with WT Siglec-6 (Homo sapiens, UniProt O43699); experiment: pHrodo internalization assay by flow cytometry; type: cell-based; settings: for liposome internalization signal (replicates): sheet Figure S42b
T3 construct: expressed in transfected cells; host or cells: Daudi cells (human B-cell line), lentiviral transduction
T3 sequence (O43699 27-453): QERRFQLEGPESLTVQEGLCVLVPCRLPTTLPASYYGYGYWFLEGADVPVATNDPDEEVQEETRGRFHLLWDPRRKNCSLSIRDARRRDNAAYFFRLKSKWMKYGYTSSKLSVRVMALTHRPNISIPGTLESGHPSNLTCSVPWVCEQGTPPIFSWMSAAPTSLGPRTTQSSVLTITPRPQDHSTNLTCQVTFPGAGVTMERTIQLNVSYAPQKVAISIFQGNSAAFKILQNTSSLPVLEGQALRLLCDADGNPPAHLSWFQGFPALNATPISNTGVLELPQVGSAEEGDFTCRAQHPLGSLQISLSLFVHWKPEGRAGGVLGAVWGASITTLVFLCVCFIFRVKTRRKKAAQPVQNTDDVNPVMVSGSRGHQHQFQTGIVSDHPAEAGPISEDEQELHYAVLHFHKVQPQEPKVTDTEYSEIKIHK
Experimental: Siglec-6 lentivirus was produced as previously reported by Bhattacherjee, A. et al.[72]. Briefly, 1 × 10^6 HEK293T cells were plated in a 6-well dish containing 1.5 mL of DMEM growth medium (Gibco) containing 10% (V/V) fetal bovine serum (FBS; Gibco), 100 U/mL penicillin (Gibco) and 100 µg/mL streptomycin (Gibco). 24 h later, a mixture of 625 ng RP18, 625 ng RP19, 1250 ng hSiglec-6 vector, 7.5 µL TransIT®-LT1 Reagent (Mirus Bio), and Opti-MEM media (Gibco) was added to the HEK293T cells. Cells were incubated with this transfection mixture at 37 °C, 5% CO2 for 72 h. Following transfection, the cell supernatant was harvested and concentrated using Lenti-X concentrator reagent (Takara Bio) following the manufacturer’s instructions.
1.5 × 10^5 Daudi cells were plated in a 24-well plate in 250 µL of RPMI growth medium (Gibco) containing 10% (V/V) fetal bovine serum (FBS; Gibco), 100 U/mL penicillin (Gibco) and 100 µg/mL streptomycin (Gibco). A range of 10X concentrated lentivirus (1, 2, 5, 10 µL) was added to the corresponding wells and incubated for approximately 8 h at 37 °C, 5% CO2 in a tissue culture incubator. After incubation, the media in each well was topped up to 750 µL. Three days post-transduction, 200 µL of cells were plated in a 96-well U-bottom plate and centrifuged at 300 × g for 5 min. The cell pellets were resuspended in 150 µL of flow cytometry buffer (HBSS containing 1% (V/V) FBS, 500 µM EDTA) and the titer of each virus was determined by measuring the mAmentrine+ cells in each well by flow cytometry. The mAmetrine+ cells, ranging from 0.5% to 5%, were re-plated in six-well plates. The mAmetrine+ virally transduced cells were selected for using 300 µg/mL zeocin until the mAmetrine+ population was ≥95%.
Human peripheral blood, taken under an approved institutional ethics protocol, was centrifuged at 1700 × g for 5 min at 4 °C. The upper phase (plasma) was collected and centrifuged at 10,000 × g for 30 min at 4 °C. […]

liposome binding, fluorescence signal (replicates) (WT Siglec-6-Fc; sheet Figure S27, WT, assay format not given): 13816 and 10279 and 11696 and 11729 | liposome binding, fluorescence signal (replicates) (R92K Siglec-6-Fc; sheet Figure S27, R92K, assay format not given): 264 and 225 and 240 and 223 | liposome binding/uptake, fluorescence signal (replicates) ([1]; sheet Figure S31, 5% GM3-DAG liposomes + mAb): 5737 and 5556 and 5976 | liposome binding/uptake, fluorescence signal (replicates) ([1]; sheet Figure S31, 5% GM3-DAG liposomes, no mAb): 20862 and 18720 and 19576
Compound: CCCCCCCCCCCCCCCCOCC(COCCCCCCCCCCCCCCCC)OCc1cn(CCO[C@@H]2O[C@H](CO)[C@@H](O[C@@H]3O[C@H](CO)[C@H](O)[C@H](O[C@]4(C(=O)O)C[C@H](O)[C@@H](NC(C)=O)[C@H]([C@H](O)[C@H](O)CO)O4)[C@H]3O)[C@H](O)[C@H]2O)nn1 [GM3-DAG]

blocking of EV binding to Siglec-6 with 5 mol% 5 nGLLs (WT Siglec-6-Fc; bead assay): competed away binding of EVs | binding of 5 nGLLs to R92K Siglec-6 Fc compared to WT Siglec-6 (R92K Siglec-6-Fc; bead assay): less than 5% | pHrodo signal of 5 nGLLs in Siglec-6 Daudi cells ([2]; independent of Arg122, only at 37 °C): time-dependent increase in pHrodo signal
Compound: CCCCCCCCCCCCCCCCOCC(COCCCCCCCCCCCCCCCC)OCc1cn(CCO[C@@H]2O[C@H](CO)[C@@H](O[C@@H]3O[C@H](CO)[C@H](O)[C@H](O[C@]4(C(=O)O)C[C@H](O)[C@@H](NC(C)=O)[C@H]([C@H](O)[C@H](O)CO)O4)[C@H]3O)[C@H](O)[C@H]2O)nn1 [nGL 5]
puncta of 5 nGLLs on syncytiotrophoblasts compared to naked liposomes ([1]; live human placental explants, 50 μM liposome, 2 h): significantly more puncta | 5 nGLL interaction with syncytiotrophoblasts after pre-treatment with anti-Siglec-6 antibody ([1]; placental explants): blocked these interactions | colocalization of 5 nGLLs with Siglec-6 compared to naked liposomes ([1]; placental explants): strong colocalization

Compound: GM3
liposome internalization signal (replicates) ([2]; WT-4): 16.4 and 15.8 and 17.6 and 19.4 | liposome internalization signal (replicates) ([2]; WT-37): 30.6 and 27.6 and 33.7 and 27.8

Source: publication PMC10122656, “Siglec-6 mediates the uptake of extracellular vesicles through a noncanonical glycolipid binding pocket” (Nature Communications, 2023)
